Here are results for 3 molecules from patent publication US12672653B2, “Pest management” (priority 2017, dated 2026).

Converted amounts (≈) assume the structure as drawn. Read-outs that look alike come from different tables or passages of the source.

For data set [1], the system named is Aedes aegypti L3 larvae. Put plainly: Mosquito larval topical dose-mortality assay (synergism). It is filed as in vivo. The conditions noted are these: for LC50: Aedes aegypti, topical. The protocol:
The efficacy of a flavesone formulation against mosquito larvae was investigated together with investigation of the potential for synergistic action of flavesone and one or more technical grade insecticides. Dose-mortality assays were performed to evaluate the toxicity of technical grade insecticide, here the synthetic pyrethroid (SP) permethrin at various concentrations (minimum five dose points) alone and co-administered with flavesone at single point dose was performed. Assays were conducted using L3 larvae of the Liverpool (SP susceptible) and Puerto Rico (SP resistant) strains of the yellow fever mosquito, Aedes aegypti maintained in continuous culture at Purdue University, US. Larvae were transferred to a 24 well tissue plate using a wide-bore plastic transfer pipette, 5 larvae per well. The water was gently removed from the well with a 1 mL pipette and an equivalent amount of ddH2O was added. The appropriate volume of test compound was added to each of the four replicate wells per treatment and the plate gently swirled to ensure uniform mixing. The plate was placed in a test or growth chamber under constant conditions of 22-25° C. and about 75-85% relative humidity on a 12 h light/12 hr dark cycle. Assays were scored for the phenotypic endpoint of death/paralysis at 24, 48 and 72 hours post exposure. Each assay incorporated a positive (flavesone) and negative (vehicle only) control, and minimum of four technical replicates per dose of test chemistry. The data reported here represent three biological replicates.
Pilot assays were first employed to determine dose of flavesone (LC50, LC25 or LC10 dose as determined in previous dose-mortality tests) appropriate for synergism assays. […] The Synergistic Ratio (SR) for insecticide+flavesone combination is also shown and the synergistic action evaluated as per the published studies of Ahmed and Matsumura (2012, Journal of Medical Entomology 49(6):1405-10) and Ahmed and Vogel (2015, Acta Tropica 155:1-5).

In data set [2] the test system is Musca domestica. Put plainly: Knockdown and mortality of houseflies exposed to treated tiles. It counts as in vivo. The conditions noted are these: for mortality: 24 hours post-initial exposure. The protocol:
Each formulation was filled into a hand-held pump sprayer. The treatments were applied to tiles from a distance of 20 cm. The tile was placed on a 0.5 m^2 grid and the entire 0.5 m^2 was sprayed, including the tile, at a rate of 50 mL/m^2. To ensure the correct volume was applied, the pump sprayer was weighed before and after spraying.
The tiles were left for two hours post-treatment to allow the formulation to dry on the tile, before evaluation started.
A control tile that was not treated with any formulation (untreated) was also used.
Ten mixed sex Musca domestica houseflies were placed in a plastic petri dish using a powered aspirator. The petri dish placed over a treated or control tile surface. The petri dish was perforated for ventilation with small holes and a cotton wool plug soaked in sugar solution provided moisture and plugged the insect introduction hole in the petri dish.
The houseflies were constantly exposed to a treated or untreated tile surface. The exposure took place at a temperature of 22±2° C. and about 50% relative humidity (RH).
After 30 minutes exposure, a piece of paper was placed over the tile surface to prevent contact of the houseflies with the treated or untreated tile. The houseflies were held at 22±2° C. and about 50% RH for 24 hours.
Housefly knockdown was noted 15 minutes and 30 minutes after beginning of exposure and 1, 2, 3 and 4 hours after initial exposure.
The above experiment was repeated four times to give five replicates. No statistical analysis was done.

Data set [3] has as its system Dorsal root ganglion (DRG) cells. Put plainly: Whole-cell patch-clamp current-clamp recording of dorsal root ganglion cells (membrane potential, action potentials). It is filed as cell-based, Sprague-Dawley rats. The protocol: (§1) Dorsal root ganglion (DRG) cells were obtained from young adult male Sprague-Dawley rats weighing 220-250 g. The rats were housed in groups of 4 in an air conditioned room on a 12 hour light/dark cycle with food and water available ad libitum.
(§2) Animals were humanely killed and the lower thoracic and upper lumbar region DRG removed and stored in chilled phosphate buffered saline (PBS). The DRG were carefully trimmed and then digested using 2 mg/mL trypsin (type XII-S) and 2 mg/mL collagenase (type XI), freshly made up in PBS, for 45-60 mins in a shaking water bath at 37° C. Subsequent to extensive washing with PBS and then plating medium (PM; 50:50 mix of DMEM/Hams F12, supplemented with 10% foetal bovine serum, 100 U/mL penicillin and 100 μg/mL streptomycin), careful trituration of the DRG was carried out using sterile fire polished glass pipettes of decreasing diameter and the cells were plated on coated glass coverslips (BD Biosciences, BD Biocoat, poly-D-Lysine), contained in 35 mm tissue culture dishes so that the cells could be easily transferred to the recording chamber mounted on an Olympus IX51 […] microscope for electrophysiological recording. Cells were incubated under standard tissue culture conditions (36° C. in a humidified atmosphere of 5% CO2, 95% air) and were used within 48-72 hours of plating.
(§3) Whole-cell patch-clamp recordings were conducted at room temperature ([…]) using an Axopatch 200B amplifier (Axon Instruments Inc., USA) with 3-7 MΩ electrodes, depending on the patch success rate and recording quality. Data were filtered and digitized appropriately. Current-clamp recordings were performed with pipette solution of the following composition: 140 mM KCl, 0.5 mM EGTA, 5 mM HEPES, 3 mM Mg-ATP and 3 mM Na-GTP (pH 7.3), adjusted to 310 mOsm/L with glucose. The bathing solution contained: 140 mM NaCl, 3 mM KCl, 2 mM MgCl2, 2 mM CaCl2, and 10 mM HEPES (pH 7.3), adjusted to 315 mOsm/L with glucose. Passive membrane properties (e.g. resting membrane potential (Vm)) were monitored during the first few minutes from establishing whole-cell access and periodically during recording. Evoked potential recordings commenced 3-5 minutes after establishing whole-cell configuration.
(§4) Flavesone test solutions were prepared fresh from a stock solution (96.7% w/w) on the day of recording. 100 μL of flavesone composition was mixed with 100 µL of Tween 80 and diluted to 10 mL in artificial cerebrospinal fluid (aCSF) to give a final flavesone concentration of 1%. The pH of the 1% solution was adjusted to 7.3 with 1M NaOH and diluted to 0.5% and 0.25% flavesone concentration with aCSF containing 1% Tween 80 immediately prior to use. Test compounds were applied using a DAD-16VC fast perfusion system (ALA Scientific Instruments, USA) and compared to the results gathered using control flow. The control was aSCF with 1% Tween 80.
(§5) Comparison samples of permethrin were prepared as 100 μM permethrin in […] (DMSO).
(§6) All analysis was conducted using Clampfit (MDS Analytical Technologies) and Excel (Microsoft) software. Statistical comparisons between groups were performed using the Student's t-test with P<0.05 taken to identify a significant difference.
A general note: In patch-clamp work, channel activity is measured electrically.

The subject of data set [4] is sodium channels. Put plainly: Sodium conductance in the DRG (voltage clamp recording). The conditions noted are these: for Normalised Na^+ Conductance Amplitude, Mean: 100 μM permethrin, Control = 100. It is filed as cell-based, Sprague-Dawley rats. The protocol: as §1, §2, §3, §4, §5, §6
Pyrethroids such as permethrin are known to be sodium channel modulators. Analysis of the effects of flavesone and permethrin on sodium conductance in the DRG was examined. […]

For data set [5], the system named is Myzus persicae. The data set can be described thus: whole plant or invertebrate. The conditions noted are these: foliar, 96 h; for LC50: read-out: LC50 (95% CI's).

As a reminder, the mortality is the percentage killed. Read a high mortality as a strong lethal effect. For the molecule `CC1(C)C(C=C(Cl)Cl)C1C(=O)OCc1cccc(Oc2ccccc2)c1` (stereo not drawn) [Permethrin], the LC50 in data set [1] (24 h, read-out: LC50 (ng/ml) (95% CL), Permethrin Dose-Mortality, L3 larvae, Liverpool (LVP, SP susceptible) strain, 24 hours post exposure, Permethrin alone) worked out at 26.7 ng/mL; in data set [1] (24 h, read-out: LC50 (ng/ml) (95% CL), Permethrin Dose-Mortality, L3 larvae, Puerto Rico (PRS, SP resistant) strain, 24 hours post exposure, Permethrin alone) it was 280 ng/mL; in data set [1] (48 h, read-out: LC50 (ng/ml) (95% CL), Permethrin Dose-Mortality, L3 larvae, Liverpool (LVP, SP susceptible) strain, 48 hours post exposure, Permethrin alone), 24.3 ng/mL; in data set [1] (48 h, read-out: LC50 (ng/ml) (95% CL), Permethrin Dose-Mortality, L3 larvae, Puerto Rico (PRS, SP resistant) strain, 48 hours post exposure, Permethrin alone), 231 ng/mL. Further, the “level of resistance to Permethrin” value in data set [1] (Puerto Rico strain larvae as compared to Liverpool strain larvae) was “approximately 10 fold”. For the same molecule, the mortality in data set [2] (1.25 mg/mL rate) stood at 62%; in data set [2] (2.5 mg/mL rate) it was 72%. The knockdown of houseflies in data set [2] (2.5 mg/mL and 1.25 mg/mL, any assessment time) was less than 100%; in data set [2] (both rates (2.5 and 1.25 mg/mL), 1-hour post initial exposure), 94%. Further, the “effect on potassium channels” value in data set [3] is listed as “no effect on potassium channels”. Moreover, in data set [3], the “input resistance in DRG neurones” value is given as “no effect on the input resistance”. For the same molecule, the “effect on mean resting potential (Vm)” value in data set [3] (100 μM) was “no effect”. For the same molecule, the “Vm (mV) Mean” value in data set [3] (100 μM permethrin) was −61.48 mV. For the same molecule, the “Δ Vm (mV) Mean” value in data set [3] (100 μM permethrin) is −08 mV. In data set [3] (100 μM permethrin, Control = 100), the “DRG Normalised No. of Action Potentials @ Vh −50 mV, Mean” value is listed as 17.95. Moreover, the “Normalised Action Potentials Amplitude, Mean” value in data set [3] (100 μM permethrin, Table 8, Control = 100) is recorded as 99.46; in data set [3] (100 μM permethrin, Table 9, Control = 100), 100.20. For the same molecule, the “number of action potentials” value in data set [3] (permethrin 100 μM, Table 7) was “significantly reduced”. In addition, in data set [3] (permethrin 100 μM, Table 8), the “amplitude of the actions” value is recorded as “no effect”. In addition, the action potential threshold result in data set [3] (permethrin 100 μM, Table 9) is “no effect”. The “effect on sodium channels” value in data set [4] is recorded as “had an effect on sodium channels”. For the same molecule, the entries for the “Normalised Na^+ Conductance Amplitude, Mean” value in data set [4] (Table 11) and in data set [4] (Table 12) were 103.47 and 282.56, respectively. In data set [4] (permethrin, Table 11), the sodium conductance amplitude result is reported as “little effect”. In addition, the “area under the curve (AUC)” value in data set [4] (permethrin, Table 12) is reported as “significant increase”. Further, the channel inactivation/deactivation entry in data set [4] (voltage clamp recording configuration) is given as “significantly prolonged channel inactivation”.

For the molecule `CC1(C)C(C=C(Cl)Cl)C1C(=O)OC(C#N)c1cccc(Oc2ccccc2)c1` (stereo not drawn) [Alpha-cypermethrin], in data set [5], the mortality at 16 µg/mL was 21.6%, the mortality at 40 µg/mL worked out at 44.9%, the mortality at 60 µg/mL worked out at 52.2% and the mortality at 80 µg/mL amounted to 86.9%. Besides, the LC50 in data set [5] came out at 44.6 µg/mL (≈ 107 µM).

`Cc1nc(N(C)C)nc(OC(=O)N(C)C)c1C` [Pirimicarb]: in data set [5], the mortality at 10 µg/mL worked out at 20.3%, the mortality at 18.5 µg/mL worked out at 36.1%, the mortality at 23 µg/mL worked out at 82.8% and the mortality at 30 µg/mL turned out to be 76.2%. Further, the LC50 in data set [5] is 19.7 µg/mL (≈ 82.7 µM).
